Measurements taken from US20220202739A1, “ENDOCANNABINOID MIMETIC AND ANTI-INFLAMMATORY COMPOUND CONTAINING COMPOSITIONS, METHODS OF PREPARATION AND USES THEREOF” (priority 2019, published 2022).

Key:
KLF4 = assay: Gene expression custom microarray, pooled keratinocyte line (Example 3): KLF4; format: cell-based, human; details: pooled keratinocytes, 20 ppm, 24 hr
Protocol: (§1) Cell cultures: Received and began culture of pooled keratinocyte line from Promocell (C-12006; Lot #448Z026). Cells were seeded into a 75 cm2 flask and 2 6 well dishes for expansion and exposure per manufacturer's protocol using Keratinocyte Growth Medium (C2011B), Keratinocyte Supplement Mix (C39016) and CaCl (C34005). 2 ml of prepared solution were added to each of the 6 wells and 7 ml was added to the 75 cm2 flask.
(§2) Experimental phase: When the appropriate quantity of cells were grown, they were detached as described above, but at the final step were seeded into each well of one or more 6 well dishes. Each well received 2 ml of the cells suspended in suspension so they were seeded equally. The dishes were returned to the incubator until 85-95% confluency is reached.
(§3) It was at this stage that all wells were rinsed in PBS after aspirating the growth media. The compound(s) to be tested were previously mixed into a suitable solvent (e.g., DMSO or ethanol) that can be diluted to the desired concentration of test compound (10 μl) in the culture wells without exceeding maximum solvent concentrations and adversely effecting cell viability, and mixed with Basal Keratinocyte Media. NOTE: Standard maximum levels of solvent are 0.1% for DMSO and 0.5% for ETOH. The concentration for each tested compound/natural extract is generally listed in the left-hand column of Table 4. For certain compositions (e.g., compositions 15 and 16), other concentrations were used and are noted in the body of Table 4.
(§4) Every 2 wells on the 6 well plate served as a biological replicate for the purposes of RNA isolation and genetic expression evaluations making each 6 well dish an n=3 for the test compound contained in the media. […]
(§5) At the end of the 24 hr time period, the plates were removed from the incubator, the test media aspirated, and the cells rinsed with PBS. […] Allow 1 minute for saturation of the membrane and then centrifuge for 2 minutes to complete the RNA elution. • Quantify the quantity of RNA and store at −20 C° until use (no more than 1 month) […]

IL1A = assay: Gene expression custom microarray, pooled keratinocyte line (Example 3): IL1A; format: cell-based, human; details: pooled keratinocytes, 20 ppm, 24 hr
Protocol: as §1, §2, §3, §4, §5

C=C(C)[C@@H]1CCC(C)=C[C@H]1c1c(O)cc(CCCCC)cc1O [CBD, cannabidiol, reference compound]
↑KLF4 gene expression, fold increase or decrease vs untreated cells (KLF4): 3.5 fold | ↓IL1A gene expression, fold increase or decrease vs untreated cells (IL1A): 2.3 fold

CCCCCCCCCCCCCCCC(=O)NCCO [N-palmitoylethanolamide]
↑KLF4 gene expression, fold increase or decrease vs untreated cells (KLF4): 1.7 fold | ↓IL1A gene expression, fold increase or decrease vs untreated cells (IL1A): −1.2 fold

CC(C)[C@]12O[C@H]1[C@@H]1O[C@]13[C@]1(O[C@H]1C[C@H]1C4=C(CC[C@@]13C)C(=O)OC4)[C@@H]2O [Triptolide]
↑KLF4 gene expression, fold increase or decrease vs untreated cells (KLF4): 1.5 fold | ↓IL1A gene expression, fold increase or decrease vs untreated cells (IL1A): −14 fold
